Positions of bridges follow the written chain, without caps; N, C: chain ends. No end group written: not given here.
Assays:
chondrocytes [1] = experiment: Chondrocyte monolayer cell cultures: proliferation (cell counts and [3H]-thymidine incorporation); format: cell-based, dog; details: 24 hours
Experimental: Fresh cartilage samples were collected from the tibial plateaus and femoral condyles of mature, healthy crossbred dogs (2–4 years; 20–25 kg). The chondrocytes were isolated as previously described (Connective Tissue Research 1988; 18:205–222). Briefly, the chondrocytes were obtained by pronase and collagenase digestion of the cartilage, then the cells were centrifuged, washed and resuspended in media before being cultured in 75 cm^2 tissue culture flasks. The cells were incubated under 5% CO2 and 95% air at 37° C. Confluence was reached by 7–10 days, at which time the cells were subcultured. After trypsinization, the cells are rinsed and resuspended in fresh medium, then seeded at 5×10^4 cells/ml in 24-well plates (0.5 ml cell suspension per well, ie. 1.4×10^4 cells/cm^2). Proliferation studies (cell counts and thymidine incorporation) were performed. Subconfluent population were changed to serum-free medium with 0.1% bovine serum albumin plus the experimental compounds. Cell numbers were analysed at 24 hours after addition of the peptide or vehicle. The cell numbers were determined using a haemocytometer chamber. Results were expressed per well. [^3H]-thymidine incorporation was assessed by pulsing the cells with [^3H]-thymidine (1 uCi/well) two hours before the end of the experimental incubation. The experiment was terminated at 24 hours by washing the cells in media containing cold thymidine followed by the addition of 10% tricholoroacetic acid. The precipitate was washed twice with ethanol:ether (3:1) and the wells desiccated at room temperature. The residue was redissolved in 2 M KOH at 55° C. for 30 mins, neutralised with 1 M HCl, and an aliquot counted for radioactivity. Results were expressed as dpm per well. For both cell counts and thymidine incorporation, each experiment was performed at least 4 different times using experimental groups consisting of at least 6 wells.

[2] = tested on: tibiae of normal adult male mice; experiment: In vivo study: daily subcutaneous injection in mice, tibial growth plate width and tibial length; details: male Swiss mice, 300 ug/kg/injection s.c., 5 days/week for 4 weeks; for tibial (epiphyseal) growth plate width: mean±sem, controls 0.081-0.094 mm
Experimental: Two groups of 20 sexually mature male Swiss mice aged between 40 and 50 days and weighing 25–32 g, were given daily subcutaneous injections (50 ul) in the loose skin at the nape of the neck for 5 days/week over 4 consecutive weeks. The treated group was injected with peptide at a dose of 300 ug/kg/injection and the control group was injected with vehicle (water). Animals were housed in a room maintained at 20° C. on 12-hour light/dark cycles. They were fed diet 86 rodent pellets (New Zealand Stockfeed Ltd) ad libitum throughout the experiment. Each animal's weight was recorded at the beginning and end of the experiment. One day after the last injection, animals were sacrificed by cervical dislocation. They study had the approval of the local institutional review board.
The tibiae were dissected free of adherent tissue. Tibial lengths were recorded by measuring the distance between the proximal epiphysis and the distal tibio-fibular junction using an electronic micrometer (Digimatic Calipers, Mitutoyo, Japan). Bones were placed in 10% phosphate-buffered formalin for 24 hours and then dehydrated in a graded series of ethanol solutions and embedded, undecalcified, in methylmethacrylate resin. Tibiae were sectioned longitudinally through the frontal plane and calvariae were cut cross-sectionally at the base of the parietal bone. All sections were 4 um think and were cut on a Leitz microtome using a tungsten-carbide knife (Microknife Sharpening, Utah, USA). Sections were mounted on gelatin-coated slides and air-dried. They were stained with Goldner's tri-chrome and examined using an Olympus BX 50 microscope (Olympus Optical Co Ltd, Tokyo, Japan) which was attached to an Osteomeasure Image Analyzer (Osteometrics Inc. Atlanta, Ga.).
Tibial histomorphometric analyses were made from three adjacent sections one third of the way through the anterior/posterior depth of the proximal tibiae. Epiphyseal growth plate thickness was measured at three sites evenly spaced along its length. All measurements were made by one operator who was blinded to the treatment group of each bone.

chondrocytes [3] = experiment: Chondrocytes 3-dimensional cell cultures in alginate beads: proliferation (cell counts and 3H-thymidine incorporation); format: cell-based, dog
Experimental: Alginate head cultures were established as described by Guo, et al. Culture and growth characteristics of chondrocytes encapsulated in alginated beads. Connective Tissue Research 19:277–297 (1989). Briefly the cells were suspended in a solution of 1.25% (wt/vol) alginate in HEPES (20 mM HEPES buffer pH neutral) at a density of 2×10^6 cells/ml> The suspension of chondrocytes were slowly extruded through a 22-gauge needle in a dropwise manner into 40 ml of 0.1 M CaCl2 solution. After instantaneous gelation, the beads were allowed to further polymerise in CaCl2 solution (10 mins, room temperature). The beads were washed sequentially, twice in 0.15 M NaCl and twice in Dulbecco's modified Eagle's medium (DME). After the washing procedure, the beads were placed into 24-well culture plates (10 beads/well) and fed with 1 ml 10% fetal calf serum (FCS) SMW with 5μg/ml ascorbic acid. The cultures were maintained at 37° C. in a humidified atmosphere of 5% CO2 in air. The medium was changed every second day. […] Cell numbers were analysed at day 8 by exposing alginate beads to 50 mM ethylenediaminetetraacetic acid (EDTA) for approximately 10 minutes at 37° C. […] Tritiated-thymidine incorporation (^3H-thymidine) was assessed by pulsing the beads with ^3H-thymidine (1μCi/well) 48 hours before the end of experimental incubation. […] Pellets were resuspended and counted for radioactivity.

For “Adrenomedullin (YRQSMNNFQGLRSFGCRFGTCTVQKLAHQIYQFTDKDKDNVAPRSKISPQGY-NH2; disulfide 16-21 (inferred); ends not checked; UniProt P35318 95-146, looked up) [52-amino acid peptide first described by Kitamura et al; synthesized by solid-phase procedures]”, the cell numbers (chondrocytes [1]; peptide 10^−9M, control 1.79±0.07, p<0.01) was 2.27±0.12 ×10^4.

In the case of “Adrenomedullin-(27–52) (AHQIYQFTDKDKDNVAPRSKISPQGY; listed as Homo sapiens)”, the “tibial (epiphyseal) growth plate width” value [2] is reported as 0.11 mm.

“Amylin (KCNTATCATQRLANFLVHSSNNFGAILSSTNVGSNTY; listed as Rattus norvegicus) [rat amylin sourced from Bachem California]” was tested, and the “thymidine incorporation (DNA synthesis)” value (chondrocytes [1]; per well, amylin concentration not given, control 20725±997) was 25937±1203 dpm, the cell numbers (chondrocytes [1]; per well, mean±sem, amylin concentration not given, control 4.12±0.23, p=0.01) was 5.11±0.21 ×10^4 and the “thymidine incorporation (DNA synthesis)” value (chondrocytes [3]; day 8, peptide 10^−10M, control 1135±85, p<0.001) was 2584±229 dpm. For the same substance, the cell numbers (chondrocytes [3]; day 8, per well, peptide 10^−10M, control 5.58±0.16, p<0.03) was 6.07±0.05 ×10^4, the “tibial (epiphyseal) growth plate width” value [2] was 0.108±0.003 mm and the “total length of the tibiae” value ([2]; control 11.31±0.07) was 11.67±0.09 mm.

For “Amylin-(1–8) (KCNTATCA-NH2; disulfide 2-7 (inferred); listed as Rattus norvegicus)”, the cell numbers (chondrocytes [1]; peptide 10–8M, control 3.23±0.11, p=0.02) was 3.63±0.09 ×10^4, the “thymidine incorporation (DNA synthesis)” value (chondrocytes [1]; peptide 10–8M, control 26859±423, p=0.02) was 28932±628 dpm and the “tibial (epiphyseal) growth plate width” value [2] was 0.111 mm.
